Results published in patent publication US4397860A, “Benzodioxanyl imidazoline compounds, compositions and use” (Reckitt & Colman Products Limited, priority 1981, dated 1983).
Where a name gives a salt, the structure may show the parent alone. Read-outs that look alike come from different tables or passages of the source.

Key:
[1] = biological target: T1, pre-synaptic α2-adrenoreceptor (Mus musculus, UniProt Q01338); assay: Pre-synaptic α2-adrenoreceptor agonist activity, mouse vas deferens (inhibition of twitch responses); set-up: key: I.A.: inactive; conditions: potency relative to clonidine = 1
T1 construct: from tissue; host or cells: mouse vas deferens
T1 sequence (Q01338 1-465): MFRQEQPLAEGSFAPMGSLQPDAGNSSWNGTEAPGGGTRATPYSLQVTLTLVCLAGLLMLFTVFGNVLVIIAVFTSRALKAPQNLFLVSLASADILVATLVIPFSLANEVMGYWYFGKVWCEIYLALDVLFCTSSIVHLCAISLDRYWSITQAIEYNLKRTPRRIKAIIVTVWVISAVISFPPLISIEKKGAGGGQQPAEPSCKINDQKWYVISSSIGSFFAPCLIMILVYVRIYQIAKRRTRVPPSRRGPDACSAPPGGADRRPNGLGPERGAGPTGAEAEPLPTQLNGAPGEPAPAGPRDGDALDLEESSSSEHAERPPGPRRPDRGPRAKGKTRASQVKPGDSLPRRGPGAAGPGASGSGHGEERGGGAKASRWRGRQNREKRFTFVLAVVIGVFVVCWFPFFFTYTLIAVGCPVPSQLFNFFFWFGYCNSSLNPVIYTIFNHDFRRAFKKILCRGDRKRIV
Description: The pharmacological activity of the compound of Example 1 (in formula I R^1 =methyl) has been compared with the activities of the isomeric compounds in which the methyl group is situated at differing positions in formula A. The procedures involved the measurement of agonist or antagonist activity at pre- and post-synaptic α-adrenoreceptors.
In the procedures outlined below agonist potency of the compounds was determined with respect to standard agents whereas antagonist potency was related to that of the compound of formula A. Pre- and post-synaptic studies were carried out in the mouse vas deferens and rat anococcygeus muscle respectively.
Pre-synaptic studies (α2)
The mouse vas deferens was stimulated at low frequency (0.1 Hz) and the "twitch" responses recorded. Pre-synaptic α2 -adrenoreceptor agonist activity was determined by assessing the ability of compounds to inhibit these contractions. When inhibition was seen the potency of the individual compounds was related to that of the standard α2 -adrenoreceptor agonist clonidine.

[2] = biological target: T2, postsynaptic α1-adrenoreceptor (Rattus norvegicus, UniProt P43140); assay: Post-synaptic α1-adrenoreceptor agonist activity, rat anococcygeus muscle (contractions); set-up: key: I.A.: inactive; conditions: potency relative to phenylephrine = 1
T2 construct: the rat anococcygeus muscle is used to establish postsynaptic α1 -adrenoreceptor activity; from tissue; host or cells: rat anococcygeus muscle
T2 sequence (P43140 1-466): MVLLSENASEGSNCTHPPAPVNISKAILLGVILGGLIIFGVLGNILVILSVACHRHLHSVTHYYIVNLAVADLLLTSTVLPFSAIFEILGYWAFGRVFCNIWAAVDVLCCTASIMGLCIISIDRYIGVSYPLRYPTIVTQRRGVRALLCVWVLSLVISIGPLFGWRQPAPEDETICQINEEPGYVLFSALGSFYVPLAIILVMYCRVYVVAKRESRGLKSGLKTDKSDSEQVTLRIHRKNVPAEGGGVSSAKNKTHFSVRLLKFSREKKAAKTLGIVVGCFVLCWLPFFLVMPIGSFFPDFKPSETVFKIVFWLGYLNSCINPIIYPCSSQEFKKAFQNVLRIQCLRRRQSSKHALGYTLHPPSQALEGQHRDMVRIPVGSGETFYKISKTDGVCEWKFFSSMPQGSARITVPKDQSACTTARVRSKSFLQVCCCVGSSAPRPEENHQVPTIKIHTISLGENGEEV

[3] = biological target: T2, postsynaptic α1-adrenoreceptor; assay: Post-synaptic α1-adrenoreceptor antagonist activity, rat anococcygeus muscle (noradrenaline-induced contractions)
[4] = tested on: pre-synaptic α2-adrenoreceptor; assay: Pre-synaptic α2-adrenoreceptor antagonist activity, mouse vas deferens (reversal of clonidine inhibition); conditions: for α2/α1 selectivity: selectivity relative to the compound of formula A, mouse vas deferens / rat anococcygeus
Description: In the antagonist studies the same experimental conditions were used except that the twitch response was suppressed by including clonidine (30 ng/ml) in the physiological solution.

[5] = tested on: presynaptic α2-adrenoreceptors; conditions: from G.B. 2,068,376A / U.S. Ser. No. 230,195; cited from earlier work
[6] = biological target: T2, postsynaptic α1-adrenoreceptor; assay: Postsynaptic α1-adrenoreceptor antagonism vs noradrenaline contractions, isolated rat anococcygeus muscle; conditions: mean of minimum 5 experiments, read-out: Postsynaptic antagonism pA2 vs Noradrenaline (anococcygeus) (converted)
[7] = rat anococcygeus muscle vs noradrenaline, dose-ratio of 2, […]

SMILES | α2 potency: Agonism [1] | α1 potency: Agonism [2] | α1 potency: Antagonism [3, 7] | α2/α1 selectivity [4] | α1 potency: Antagonism [3] | α1 potency: Antagonism (result in words) ([3]; rat anococcygeus muscle vs noradrenaline, 20ng/ml) | selectivity in blocking presynaptic α2-adrenoreceptors (in words) [5] | Kb [6] [µM] | selectivity relative to the compound of formula A (in words) ([4]; Table 3)
Cc1ccc2c(c1)OC(C1=NCCN1)CO2 (stereo not drawn) [Example 7-methyl] | I.A. | 0.004 | 0.125 | 0.64 | – | – | – | – | –
Cc1cccc2c1OC(C1=NCCN1)CO2 (stereo not drawn) [Example 8-methyl] | 0.01 | 2.1 | – | – | – | – | – | – | –
CN1CCN=C1C1COc2ccccc2O1 (stereo not drawn) [3^1 -methyl] | I.A. | I.A. | – | 0.003 | 1.0 | – | – | – | –
Cc1cccc2c1OCC(C1=NCCN1)O2 (stereo not drawn) [Example 5-methyl] | 0.1 | 1.0 | – | – | – | Potentiation | – | – | –
c1ccc2c(c1)OCC(C1=NCCN1)O2 (stereo not drawn) [formula A, 2-[2-(1,4-benzodioxanyl)]-2-imidazoline] | – | – | – | – | – | – | high degree of selectivity in blocking presynaptic α2 -adrenoreceptors | – | –
CC1Oc2ccccc2OC1C1=NCCN1 (stereo not drawn) [Example 3-methyl] | I.A. | I.A. | < 0.023 | – | – | – | – | – | –
CC1(C2=NCCN2)COc2ccccc2O1 (stereo not drawn) [Example 1, 2-[2-(2-Methyl-1,4-benzodioxanyl)]-2-imidazoline hydrochloride] | I.A. | I.A. | 0.28 | 2.4 | – | – | – | 2.51 | rather more than twice as selective as the compound of formula A
Cc1ccc2c(c1)OCC(C1=NCCN1)O2 (stereo not drawn) [Example 6-methyl] | I.A. | I.A. | < 0.11 | 0.7 | – | – | – | – | –
